{"source": "patent US20120183482A1", "about": "“MELANIN PRODUCTION INHIBITOR” (FUJIFILM CORPORATION, priority 2009, published 2012)", "key": {"B16 melanoma cells [1]": {"system": "B16 melanoma cells", "experiment": "Cytotoxicity test (MTT assay)", "type": "cell-based", "conditions": "for Cell survival rate: 72 hours, no sample = 100", "protocol": "B16 melanoma cells were seeded on 10% (v/v) FBS-containing MEM medium so as to be 1.25×10^5 cells/well in a 24-well culture plate and were cultivated for 24 hours in a usual manner.\n(§1) After the pre-cultivation, the medium was replaced with a test medium and cultivation was carried out for 72 hours. As the test medium, there was employed a medium obtained by adding 0.25 mmol/L of theophylline, 0.5% (v/v) of dimethyl sulfoxide to the medium for the pre-cultivation, and each of various evaluation samples so as to be a concentration described in Table.\nAfter the cultivation was finished, the cells were washed with PBS and then a 0.5 mg/mL MTT solution was added in an amount of 500 μL/well and the temperature was kept for 2 hours in an incubator. Thereafter, 1.5 mL of dimethyl sulfoxide was added thereto and then absorbance at a wavelength of 570 nm was measured and taken as an index of the number of living cells.\nA cell revival rate (%) in the case where the evaluation sample was added was determined, the number of living cells in the case where no evaluation sample was added being regarded as 100."}, "B16 melanoma cells [2]": {"system": "B16 melanoma cells", "experiment": "Melanin production inhibition test", "type": "cell-based", "conditions": "for Melanin Production: no sample = 100; for IC50: Mus musculus, B16, read out from the melanin production inhibition curves (FIG. 1), read-out: IC50 values at which 50% of the melanin production was inhibited", "protocol": "B16 melanoma cells were seeded on 10% (v/v) FBS-containing MEM medium (minimum basal medium containing fetal bovine serum) so as to be 2.5×10^5 cells/well in a 12-well culture plate and were cultivated for 24 hours in a usual manner.\nas §1\nThe Salacia crude extract was prepared by the following method. After 0.5 kg of root and trunk parts of Salacia reticulate, Salacia oblonga, and Salacia chinensis were pulverized, 10 L of water was added thereto and extraction was performed under conditions of 100° C. and 1 hour. After the obtained extract solution was filtrated through a 100-mesh filter, spray drying was performed and a product obtained as 50 g of an extract powder was used.\nAs ellagic acid, ellagic acid dihydrate manufactured by Wako Pure Chemical Industries, Ltd. was used.\nAs arbutin, β-arbutin manufactured by Sigma-Aldrich was used.\nAfter the cultivation was finished, the cells were washed with PBS (phosphate buffer) and then a 1 mol/L aqueous sodium hydroxide solution containing 10% (v/v) dimethyl sulfoxide was added thereto. After the whole was subjected to an ultrasonic treatment at 50° C. for 30 minutes, absorbance of the solution at a wavelength of 400 nm was measured and was taken as a melanin amount in a well. Moreover, at the same time, measurement of the number of living cells by MTT assay was carried out in another culture plate (test conditions are in accordance to Example 2). Finally, the melanin amount in the well was normalized by the measurement value by the MTT assay and the resulting amount was taken as a melanin amount per unit cell.\nA melanin production inhibition rate (%) in the case where the evaluation sample was added was determined, the melanin amount in the case where no evaluation sample was added being regarded as 100."}, "[3]": {"conditions": "high concentration region, data are not shown"}}, "data": [{"smiles": "OC[C@H]1O[C@@H](Oc2ccc(O)cc2)[C@H](O)[C@@H](O)[C@@H]1O", "note": "[Arbutin, β-arbutin]", "values": [{"measurement": "cytotoxicity (in words)", "setting": "B16 melanoma cells [1]; [3]", "result": "cytotoxicity was observed"}, {"measurement": "Melanin Production", "setting": "B16 melanoma cells [2]; 16.338 μg/mL, 72 hours", "result": 69.5, "unit": "%"}, {"measurement": "Melanin Production", "setting": "B16 melanoma cells [2]; 54.46 μg/mL, 72 hours", "result": 49.9, "unit": "%"}, {"measurement": "Melanin Production", "setting": "B16 melanoma cells [2]; 163.38 μg/mL, 72 hours", "result": 28.4, "unit": "%"}, {"measurement": "Melanin Production", "setting": "B16 melanoma cells [2]; 544.6 μg/mL, 72 hours", "result": 20.7, "unit": "%"}, {"measurement": "IC50", "setting": "B16 melanoma cells [2]", "result": 54, "unit": "µg/mL"}]}, {"smiles": "O=c1oc2c(O)c(O)cc3c(=O)oc4c(O)c(O)cc1c4c23", "note": "[Ellagic acid, ellagic acid dihydrate]", "values": [{"measurement": "Cell survival rate", "setting": "B16 melanoma cells [1]; 0.67646 μg/mL", "result": 117.4, "unit": "%"}, {"measurement": "Cell survival rate", "setting": "B16 melanoma cells [1]; 2.02938 μg/mL", "result": 107.3, "unit": "%"}, {"measurement": "Cell survival rate", "setting": "B16 melanoma cells [1]; 6.7646 μg/mL", "result": 48.1, "unit": "%"}, {"measurement": "Cell survival rate", "setting": "B16 melanoma cells [1]; 20.2938 μg/mL", "result": 25.8, "unit": "%"}, {"measurement": "cytotoxicity (in words)", "setting": "B16 melanoma cells [1]; high concentration region (up to 20.3 μg/mL)", "result": "exhibited cytotoxicity"}, {"measurement": "Melanin Production", "setting": "B16 melanoma cells [2]; 0.67646 μg/mL, 72 hours", "result": 79, "unit": "%"}, {"measurement": "Melanin Production", "setting": "B16 melanoma cells [2]; 2.02938 μg/mL, 72 hours", "result": 33, "unit": "%"}, {"measurement": "IC50", "setting": "B16 melanoma cells [2]", "result": 1.5, "unit": "µg/mL"}]}, {"smiles": "O=c1cc(CO)occ1O", "note": "[Kojic acid]", "values": [{"measurement": "cytotoxicity (in words)", "setting": "B16 melanoma cells [1]; [3]", "result": "cytotoxicity was observed"}, {"measurement": "Melanin Production", "setting": "B16 melanoma cells [2]; 8.5266 μg/mL, 72 hours", "result": 83.6, "unit": "%"}, {"measurement": "Melanin Production", "setting": "B16 melanoma cells [2]; 28.422 μg/mL, 72 hours", "result": 77.2, "unit": "%"}, {"measurement": "Melanin Production", "setting": "B16 melanoma cells [2]; 85.266 μg/mL, 72 hours", "result": 72.8, "unit": "%"}, {"measurement": "Melanin Production", "setting": "B16 melanoma cells [2]; 284.22 μg/mL, 72 hours", "result": 43.4, "unit": "%"}, {"measurement": "IC50", "setting": "B16 melanoma cells [2]", "result": 240, "unit": "µg/mL"}]}, {"smiles": "COc1ccc(C(=O)[O-])c(O)c1.[K+]", "note": "[Potassium 4-methoxysalicylate]", "values": [{"measurement": "cytotoxicity (in words)", "setting": "B16 melanoma cells [1]; [3]", "result": "cytotoxicity was observed"}, {"measurement": "Melanin Production", "setting": "B16 melanoma cells [2]; 123.69 μg/mL, 72 hours", "result": 46.0, "unit": "%"}, {"measurement": "Melanin Production", "setting": "B16 melanoma cells [2]; 412.3 μg/mL, 72 hours", "result": 20.1, "unit": "%"}, {"measurement": "IC50", "setting": "B16 melanoma cells [2]", "result": 80, "unit": "µg/mL"}]}, {"smiles": "O=S(=O)([O-])O[C@@H](CO)[C@H](O)C[S@+]1C[C@@H](O)[C@H](O)[C@H]1CO", "note": "[Salacinol, salacinol]", "values": [{"measurement": "Cell survival rate", "setting": "B16 melanoma cells [1]; 1.998 μg/mL", "result": 89.6, "unit": "%"}, {"measurement": "Cell survival rate", "setting": "B16 melanoma cells [1]; 6.66 μg/mL", "result": 85.0, "unit": "%"}, {"measurement": "Cell survival rate", "setting": "B16 melanoma cells [1]; 19.98 μg/mL", "result": 87.9, "unit": "%"}, {"measurement": "Cell survival rate", "setting": "B16 melanoma cells [1]; 66.6 μg/mL", "result": 78.8, "unit": "%"}, {"measurement": "cytotoxicity (in words)", "setting": "B16 melanoma cells [1]; concentration region up to 66.6 μg/mL", "result": "almost no cytotoxicity"}, {"measurement": "Melanin Production", "setting": "B16 melanoma cells [2]; 1.998 μg/mL, 72 hours, melanin amount per unit cell", "result": 71, "unit": "%"}, {"measurement": "Melanin Production", "setting": "B16 melanoma cells [2]; 6.66 μg/mL, 72 hours", "result": 50, "unit": "%"}, {"measurement": "Melanin Production", "setting": "B16 melanoma cells [2]; 19.98 μg/mL, 72 hours", "result": 34, "unit": "%"}, {"measurement": "melanin production inhibitory effect (in words)", "setting": "B16 melanoma cells [2]; B16 melanoma cells, 72 hours", "result": "concentration-dependent and remarkable melanin production inhibitory effect"}, {"measurement": "IC50", "setting": "B16 melanoma cells [2]", "result": 6.3, "unit": "µg/mL"}]}]}
